Data as given in ChEMBL document CHEMBL1147612, “Synthesis, topoisomerase I inhibition and structure-activity relationship study of 2,4,6-trisubstituted pyridine derivatives” (Bioorg Med Chem Lett, 2004).

What was measured:
Type in all cases: functional, cell-based
SK-MEL-2 = experiment: Antitumor cytotoxicity was determined against the SK-MEL-2 (human malignant melanoma) cell line; Range: 0.01 to 0.03
HCT-15 = experiment: Antitumor cytotoxicity was determined against the HCT-15 (human colon adenocarcinoma) cell line; Range: 0.01 to 0.03
A549 = experiment: Antitumor cytotoxicity was determined against the A-549(human lung carcinoma) cell line; Range: 0.01 to 0.03
SK-OV-3 = experiment: Antitumor cytotoxicity was determined against the SK-OV-3 (human ovary adenocarcinoma) cell line; Range: 0.01 to 0.03; details: SK-OV-3, Female gonad

Measured: EC50

c1ccc(-c2cc(-c3ccccn3)nc(-c3ccccn3)c2)nc1
30 nM: all assays above
